Data taken from ChEMBL document CHEMBL1130680, “Restricting the flexibility of crosslinked, interfacial peptide inhibitors of HIV-1 protease” (Bioorg Med Chem Lett, 1998).

target: Human immunodeficiency virus type 1 protease (Human immunodeficiency virus 1, UniProt Q72874); assay: Inhibition of HIV-1 protease by fluorogenic substrate assay

Row | Structure (SMILES) | IC50 [µM]
1 | CC[C@H](C)[C@H](NC(=O)[C@H](CCC(N)=O)NC(=O)[C@@H]1CCCN1C(=O)CCCCCCC/C=C/CCCCCCCC(=O)N[C@H](CO)C(=O)N[C@@H](C(=O)N[C@H](CC(C)C)C(=O)N[C@H](CC(N)=O)C(=O)N[C@H](Cc1ccccc1)C(=O)O)[C@H](C)O)C(=O)N[C@H](C(=O)N[C@@H](CC(C)C)C(=O)N[C@@H](Cc1c[nH]c2ccccc12)C(=O)O)[C@@H](C)O | 6.3
2 | CC[C@H](C)[C@H](NC(=O)[C@H](CCC(N)=O)NC(=O)[C@@H]1CCCN1C(=O)CCCCC/C=C\CCCCCC(=O)N[C@H](CO)C(=O)N[C@@H](C(=O)N[C@H](CC(C)C)C(=O)N[C@H](CC(N)=O)C(=O)N[C@H](Cc1ccccc1)C(=O)O)[C@H](C)O)C(=O)N[C@H](C(=O)N[C@@H](CC(C)C)C(=O)N[C@@H](Cc1c[nH]c2ccccc12)C(=O)O)[C@@H](C)O | 32.7
3 | CC[C@H](C)[C@H](NC(=O)[C@H](CCC(N)=O)NC(=O)[C@@H]1CCCN1C(=O)CCCCCCCCCCCCCCCCC(=O)N[C@H](CO)C(=O)N[C@@H](C(=O)N[C@H](CC(C)C)C(=O)N[C@H](CC(N)=O)C(=O)N[C@H](Cc1ccccc1)C(=O)O)[C@H](C)O)C(=O)N[C@H](C(=O)N[C@@H](CC(C)C)C(=O)N[C@@H](Cc1c[nH]c2ccccc12)C(=O)O)[C@@H](C)O | 4
4 | CC[C@H](C)[C@H](NC(=O)[C@H](CCC(N)=O)NC(=O)[C@@H]1CCCN1C(=O)CCCCCCCC#CCCCCCCCC(=O)N[C@H](CO)C(=O)N[C@@H](C(=O)N[C@H](CC(C)C)C(=O)N[C@H](CC(N)=O)C(=O)N[C@H](Cc1ccccc1)C(=O)O)[C@H](C)O)C(=O)N[C@H](C(=O)N[C@@H](CC(C)C)C(=O)N[C@@H](Cc1c[nH]c2ccccc12)C(=O)O)[C@@H](C)O | 7.2
5 | CC[C@H](C)[C@H](NC(=O)[C@H](CCC(N)=O)NC(=O)[C@@H]1CCCN1C(=O)CCCCCCC#CCCCCCCC(=O)N[C@H](CO)C(=O)N[C@@H](C(=O)N[C@H](CC(C)C)C(=O)N[C@H](CC(N)=O)C(=O)N[C@H](Cc1ccccc1)C(=O)O)[C@H](C)O)C(=O)N[C@H](C(=O)N[C@@H](CC(C)C)C(=O)N[C@@H](Cc1c[nH]c2ccccc12)C(=O)O)[C@@H](C)O | 4.5
6 | CC[C@H](C)[C@H](NC(=O)[C@H](CCC(N)=O)NC(=O)[C@@H]1CCCN1C(=O)CCCCCC/C=C/CCCCCCC(=O)N[C@H](CO)C(=O)N[C@@H](C(=O)N[C@H](CC(C)C)C(=O)N[C@H](CC(N)=O)C(=O)N[C@H](Cc1ccccc1)C(=O)O)[C@H](C)O)C(=O)N[C@H](C(=O)N[C@@H](CC(C)C)C(=O)N[C@@H](Cc1c[nH]c2ccccc12)C(=O)O)[C@@H](C)O | 17.5
7 | CC[C@H](C)[C@H](NC(=O)[C@H](CCC(N)=O)NC(=O)[C@@H]1CCCN1C(=O)CCCCCCCCCCCCCCC(=O)N[C@H](CO)C(=O)N[C@@H](C(=O)N[C@H](CC(C)C)C(=O)N[C@H](CC(N)=O)C(=O)N[C@H](Cc1ccccc1)C(=O)O)[C@H](C)O)C(=O)N[C@H](C(=O)N[C@@H](CC(C)C)C(=O)N[C@@H](Cc1c[nH]c2ccccc12)C(=O)O)[C@@H](C)O | 2
8 | CC[C@H](C)[C@H](NC(=O)[C@H](CCC(N)=O)NC(=O)[C@@H]1CCCN1C(=O)CCCCCC#CCCCCCC(=O)N[C@H](CO)C(=O)N[C@@H](C(=O)N[C@H](CC(C)C)C(=O)N[C@H](CC(N)=O)C(=O)N[C@H](Cc1ccccc1)C(=O)O)[C@H](C)O)C(=O)N[C@H](C(=O)N[C@@H](CC(C)C)C(=O)N[C@@H](Cc1c[nH]c2ccccc12)C(=O)O)[C@@H](C)O | 21
9 | CC[C@H](C)[C@H](NC(=O)[C@H](CCC(N)=O)NC(=O)[C@@H]1CCCN1C(=O)CCCCCCCCCCCCC(=O)N[C@H](CO)C(=O)N[C@@H](C(=O)N[C@H](CC(C)C)C(=O)N[C@H](CC(N)=O)C(=O)N[C@H](Cc1ccccc1)C(=O)O)[C@H](C)O)C(=O)N[C@H](C(=O)N[C@@H](CC(C)C)C(=O)N[C@@H](Cc1c[nH]c2ccccc12)C(=O)O)[C@@H](C)O | 13
10 | CC[C@H](C)[C@H](NC(=O)[C@H](CCC(N)=O)NC(=O)[C@@H]1CCCN1C(=O)CCCCCCC/C=C\CCCCCCCC(=O)N[C@H](CO)C(=O)N[C@@H](C(=O)N[C@H](CC(C)C)C(=O)N[C@H](CC(N)=O)C(=O)N[C@H](Cc1ccccc1)C(=O)O)[C@H](C)O)C(=O)N[C@H](C(=O)N[C@@H](CC(C)C)C(=O)N[C@@H](Cc1c[nH]c2ccccc12)C(=O)O)[C@@H](C)O | 4.4
11 | CC[C@H](C)[C@H](NC(=O)[C@H](CCC(N)=O)NC(=O)[C@@H]1CCCN1C(=O)CCCCCC/C=C\CCCCCCC(=O)N[C@H](CO)C(=O)N[C@@H](C(=O)N[C@H](CC(C)C)C(=O)N[C@H](CC(N)=O)C(=O)N[C@H](Cc1ccccc1)C(=O)O)[C@H](C)O)C(=O)N[C@H](C(=O)N[C@@H](CC(C)C)C(=O)N[C@@H](Cc1c[nH]c2ccccc12)C(=O)O)[C@@H](C)O | 12.9
12 | CC[C@H](C)[C@H](NC(=O)[C@H](CCC(N)=O)NC(=O)[C@@H]1CCCN1C(=O)CCCCC/C=C/CCCCCC(=O)N[C@H](CO)C(=O)N[C@@H](C(=O)N[C@H](CC(C)C)C(=O)N[C@H](CC(N)=O)C(=O)N[C@H](Cc1ccccc1)C(=O)O)[C@H](C)O)C(=O)N[C@H](C(=O)N[C@@H](CC(C)C)C(=O)N[C@@H](Cc1c[nH]c2ccccc12)C(=O)O)[C@@H](C)O | 51.5
